According to article PMC7073184, “The Major Cat Allergen Fel d 1 Binds Steroid and Fatty Acid Semiochemicals: A Combined In Silico and In Vitro Study” (International Journal of Molecular Sciences, 2020):
Read-outs that look alike come from different tables or passages of the source.

Key:
rFel d 1 [1] = biological target: T1, rFel d 1 (Felis catus, UniProt P30438+P30440); test: 1-NPN displacement screening (fluorescence); format: binding, cat; conditions: 1 µM rFel d 1, 1 μM 1-NPN, 2 µM competitive ligand
Protocol: (§1) N-Phenyl-1-naphthylamine (1-NPN) was used as a non-polar fluorescent probe in competitive binding experiments with the ligands (Sigma, France) to investigate binding efficiency of semiochemical analogs with pure rFel d 1 (INDOOR Biotechnologies, UK). The fluorescence experiments were performed on an FP-750 spectrofluorometer (JASCO, Japan) instrument at 25 °C in a right-angle configuration with a 1 cm light path fluorimeter quartz cuvette and 5-nm slits for both excitation and emission. The probe 1-NPN was excited at 337 nm and emission spectra were recorded between 380 and 450 nm, at 25 °C. The protein was dissolved in 50 mM Tris-HCl, pH 7.4, and ligands were added as 1 mM methanol solutions.
(§2) Semiochemicals were first screened for their capabilities to bind rFel d 1 using 1 µM of rFel d 1, 1 μM of 1-NPN, and 2 µM of a competitive ligand. […] IC50 was graphically determined from the dose–response curve of each competitor ligand.

[2] = ref PubChem and ChemSpider; cited from earlier work
rFel d 1 [3] = biological target: T1, rFel d 1; test: Competitive binding assay with the fluorescent probe 1-NPN; parameters: species or system cat; conditions: for IC50: 1 µM rFel d 1, 2 μM 1-NPN, 25 °C, 50 mM Tris-HCl pH 7.4, competitor 0–16 μM; for Kd: calculated from IC50 with K1-NPN […]
Protocol: Figure 2 Competitive binding of selected fatty acids (a) and steroids (b) to rFel d 1. […] Fluorescence of probe-protein complexes in the absence of a competitor was normalized to 100%.
as §1, §2

rFel d 1 [4] = biological target: T1, rFel d 1; test: 1-NPN binding to rFel d 1 (fluorescence titration); parameters: species or system cat
Protocol: To a 1-µM solution of the protein in 50 mM Tris-HCl, pH 7.4, aliquots of 1 mM solution of 1-NPN in methanol were added to final concentrations of 1–20 µM. (a) The representative emission curves experimentally obtained. […] (b) The saturation binding curve obtained from the average of three experiments.
N-Phenyl-1-naphthylamine (1-NPN) was used as a non-polar fluorescent probe in competitive binding experiments with the ligands (Sigma, France) to investigate binding efficiency of semiochemical analogs with pure rFel d 1 (INDOOR Biotechnologies, UK) [30]. The fluorescence experiments were performed on an FP-750 spectrofluorometer (JASCO, Japan) instrument at 25 °C in a right-angle configuration with a 1 cm light path fluorimeter quartz cuvette and 5-nm slits for both excitation and emission. The probe 1-NPN was excited at 337 nm and emission spectra were recorded between 380 and 450 nm, at 25 °C. The protein was dissolved in 50 mM Tris-HCl, pH 7.4, and ligands were added as 1 mM methanol solutions.
The binding of 1-NPN to rFel d 1 was tested at two protein concentrations (1 µM and 2 µM) by titrating the protein solution with aliquots of a 1-mM solution of 1-NPN in methanol to final concentrations of 1–20 µM. The bound ligand was evaluated from the values of fluorescence intensity assuming that the protein was 100% active, with a stoichiometry of 1:1 protein: ligand. […]

T1 sequence (P30440 18-109): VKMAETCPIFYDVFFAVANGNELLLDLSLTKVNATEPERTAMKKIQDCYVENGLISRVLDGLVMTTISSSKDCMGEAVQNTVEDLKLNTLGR
T1 sequence (P30438 23-92): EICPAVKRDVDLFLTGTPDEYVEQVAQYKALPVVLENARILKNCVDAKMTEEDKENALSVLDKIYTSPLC

Compound	1-NPN Displacement Screening (rFel d 1 [1])	Topological Polar Surface Area [2] [Å²]	also measured
CCCCCCCCCCCCO [Dodecanol]	No	20.2	–
C[C@]12CC[C@@H]3c4ccc(O)cc4CC[C@H]3[C@@H]1CC[C@@H]2O [Estradiol]	Yes	40.5	–
CCCCCCCCCCCC(=O)O [Lauric acid]	Yes	37.3	IC50 (rFel d 1 [3]): 3.3 µM; Kd (rFel d 1 [3]): 2.6 µM
CC(=O)[C@H]1CC[C@H]2[C@@H]3CC=C4C[C@@H](O)CC[C@]4(C)[C@H]3CC[C@]12C [Pregnenolone]	Yes	37.3	IC50 (rFel d 1 [3]; read-out: IC50): 13.1 µM; Kd (rFel d 1 [3]; read-out: Kd): 10.1 µM
CCCCCCCCCCCCCCCCCC(N)=O [Octadecanamide]	–	43.1	–
CC12C=CCC1C1CCC3CC(=O)CCC3(C)C1CC2 (centres unmarked) [Androstenone]	Yes	17.1	IC50 (rFel d 1 [3]; read-out: IC50): 3.1 µM; Kd (rFel d 1 [3]; read-out: Kd): 2.4 µM
C[C@]12CC[C@H]3[C@@H](CCC4=CC(=O)CC[C@@]43C)[C@@H]1CC[C@@H]2O [Testosterone]	Yes	37.3	–
C[C@]12CCC(=O)C[C@@H]1CC[C@@H]1[C@@H]2CC[C@]2(C)[C@@H](O)CC[C@@H]12 [Dihydrotestosterone]	No	37.3	–
CCCCCCCC/C=C\CCCCCCCC(=O)O [Oleic acid]	Yes	37.3	IC50 (rFel d 1 [3]): 10 µM; Kd (rFel d 1 [3]): 7.7 µM
C[C@]12CC[C@@H]3c4ccc(O)cc4CC[C@H]3[C@@H]1CCC2=O [Estrone]	Yes	–	–
Deoxycorticosterone	No	54.4	–
CC(C)C(=O)O [Isobutyric acid]	–	37.3	–
C[C@]12C[C@H](O)[C@H]3[C@@H](CCC4=CC(=O)CC[C@@]43C)[C@@H]1CC[C@@H]2C(=O)CO [Corticosterone]	No	74.6	–
CC(=O)[C@H]1CC[C@H]2[C@@H]3CCC4=CC(=O)CC[C@]4(C)[C@H]3CC[C@]12C [Progesterone]	Yes	34.1	IC50 (rFel d 1 [3]): 13.6 µM; Kd (rFel d 1 [3]): 10.5 µM
CCCCC/C=C\C/C=C\CCCCCCCC(=O)O [Linoleic acid]	Yes	37.3	IC50 (rFel d 1 [3]): 10.1 µM; Kd (rFel d 1 [3]): 7.8 µM
C[C@]12CCC(=O)C=C1CC[C@@H]1[C@@H]2CC[C@]2(C)C(=O)CC[C@@H]12 [Androstenedione]	Yes	34.1	–
CCCCCCCCCCCCCCCC(=O)O [Palmitic acid]	Yes	37.3	affinity to rFel d 1 in words (rFel d 1 [3]; competitive binding with 1-NPN, among the fatty acids): weakest ligand
CCCCCCCCC(N)=O [Nonanamide]	–	43.1	–
CCCCCCCCCCCC=O [Dodecanal]	No	17.1	–
CC(=O)[C@@]1(O)CC[C@H]2[C@@H]3CCC4=CC(=O)CC[C@]4(C)[C@H]3CC[C@@]21C [Hydroxyprogesterone]	Yes	54.4	–
CCCCCCCCCCCCCCO [Tetradecanol]	No	20.2	–
C[C@]12CC[C@@H](O)C[C@@H]1CC[C@@H]1[C@@H]2CC[C@]2(C)C=CC[C@@H]12 [Androstenol]	No	20.2	–
C[C@]12CC[C@H](O)CC1=CC[C@@H]1[C@@H]2CC[C@]2(C)C(=O)CC[C@@H]12 [Dehydroepiandrosterone (DHEA), Dehydroepiandrosterone]	Yes	37.3	–
CCCCCCCCCCCCCC(=O)O [Myristic acid]	Yes	37.3	IC50 (rFel d 1 [3]): 14.4 µM; Kd (rFel d 1 [3]): 11.1 µM
CCCCCCCCCCCCCCCC(=O)OC [Methyl Palmitate]	No	26.3	–
c1ccc(Nc2cccc3ccccc23)cc1 [1-NPN, N-phenyl-1-naphthylamine, reference compound]	–	12	Kd (rFel d 1 [4]; 1 µM rFel d 1, 50 mM Tris-HCl pH 7.4, 1-NPN 1–20 µM, average of three experiments, read-out: dissociation constant of 1-NPN (GraphPad)): 5.8 µM; Kd (rFel d 1 [4]; 1 µM rFel d 1, Scatchard plot, read-out: dissociation constant K1-NPN (Scatchard analysis)): 4.8 µM
CCCCCCCCCC(=O)O [Capric acid]	No	–	–
CCCCCCCCCCCC(=O)OCC [Ethyl Laurate]	No	26.3	–
CCCCCCCCCCCCCCCC(N)=O [Hexadecanamide]	–	43.1	–
